Source: article PMC11356900, “Synthesis, Structural Properties and Biological Activities of Novel Hydrazones of 2-, 3-, 4-Iodobenzoic Acid” (Molecules, 2024)
≈ marks a conversion by molar mass, not a printed value. Where two headings read alike, the source gives them in different places.

How the values were obtained:
[1] = test system: Candida albicans ATCC 10231; assay: Broth microdilution MIC/MFC; assay type: cell-based; conditions: ATCC10231, read-out: MIC
Source text: (§1) Procedures of in vitro antimicrobial assays are described in Supplementary Materials.
(§2) 2. Microbiology – in vitro antimicrobial activity assays […]
(§3) using the broth microdilution method according to the European Committee on Antimicrobial Susceptibility Testing (EUCAST) and Clinical and Laboratory Standards Institute guidelines against a panel of reference and clinical or saprophytic strains of mi croorganisms, including the Gram-positive bacteria: Staphylococcus aureus ATCC 43300 (Methi-cillin Resistant S. aureus – MRSA), Staphylococcus aureus ATCC 29213 (Methicillin Susceptible S. aureus – MSSA), Staph-ylococcus epidermidis ATCC 12228, Micrococcus luteus ATCC 10240, Bacillus subtilis ATCC 6633 and Bacillus cereus ATCC 10876), Gram-negative bacteria: Bordetella bronchiseptica ATCC 4617, Escherichia coli ATCC 25922, Klebsiella pneumoniae ATCC 13883, Proteus mirabilis ATCC 12453, Salmonella typhimurium ATCC 14028 and Pseudomonas aeruginosa ATCC 9027, and fungi belonging to yeasts: Candida albicans ATCC 10231, Candida albicans ATCC 2091, Candida parapsilosis ATCC 22019, Candida glabrata ATCC 90030 and Candida krusei ATCC 14243. The microorganisms belonging to ATCC originated from American Type Culture Collection, routinely used for the evaluation of antimicrobials. All the used microbial cultures were first subcultured on nutrient agar or Sabouraud agar at 35°C for 18-24 h or 30°C for 24-48 h for bacteria […]
(§4) The surface of Mueller-Hinton agar (for bacteria) and RPMI 1640 with MOPS (for fungi) were inoculated with the suspensions of bacterial or fungal species. Microbial suspensions were prepared in sterile saline with an optical density of McFarland standard scale 0.5. The samples containing the compounds were dissolved in dimethyl sulfoxide (DMSO).
(§5) Furthermore, the bacterial and fungal suspensions put onto the Petri dishes with solid media containing 2 mg/mL of the tested compounds followed were incubated at 37°C for 24h and 30°C for 48h for bacteria and fungi, respectively.
(§6) The inhibition of microbial growth was estimated comparing with a control culture prepared without any tested sam- […]
(§7) antifungal compounds, respectively.
(§8) Subsequently, MIC (Minimal Inhibitory Concentration) of the compounds was examined by the microdilution broth method, using their two-fold dilutions in Mueller-Hinton broth (for bacteria) and RPMI 1640 broth with MOPS (for fungi) prepared in the 96-well polystyrene plates. The final concentrations of the compounds ranged from 1000 to 0.488 µg/mL. Microbial suspensions were prepared in 0.85% NaCl with an optical density of 0.5 McFarland standard. Next each bacterial or fungal suspension was added per each well containing broth and various concentrations of the exam-ined compounds. After incubation, the MIC was assessed spectrophotometrically as the lowest concentration of the […]
(§9) Appropriate DMSO, growth and sterile controls were carried out. The medium with no tested substances was used as a control The MBC (Minimal Bactericidal Concentration) and MFC (Minimal Fungicidal Concentration) are defined as the lowest concentration of the compounds that is required to kill a particular bacterial or fungal species. The MBC/MFC was determined by removing the culture used for the MIC determination from each well and spotted onto the appro-priate agar medium. The plates were incubated under appropriate conditions for bacteria and fungi. The lowest com-pounds concentration with no visible growth observed was assessed as a bactericidal/fungicidal concentration. All the experiments were repeated three times and the representative data are presented.
(§10) 1. European Committee for Antimicrobial Susceptibility Testing (EUCAST) Determination of minimum inhibitory con-centrations (MICs) of antibacterial agents by broth dilution. EUCAST discussion document E. Dis 5.1. Clin. Microbiol.
(§11) 2. Clinical and Laboratory Standards Institute. Reference method for broth dilution antifungal susceptibility testing of […]

[2] = test system: Candida albicans ATCC 2091; assay: Broth microdilution MIC/MFC; assay type: cell-based; conditions: ATCC2091, read-out: MIC
Source text: as §1, §2, §3, §4, §5, §6, §7, §8, §9, §10, §11

[3] = test system: Candida glabrata ATCC 90030; assay: Broth microdilution MIC/MFC; assay type: cell-based; conditions: Nakaseomyces glabratus, ATCC90030, read-out: MIC
Source text: as §1, §2, §3, §4, §5, §6, §7, §8, §9, §10, §11

[4] = test system: Candida krusei ATCC 14243; assay: Broth microdilution MIC/MFC; assay type: cell-based; conditions: Pichia kudriavzevii, ATCC14243, read-out: MIC
Source text: as §1, §2, §3, §4, §5, §6, §7, §8, §9, §10, §11

[5] = test system: Candida parapsilosis ATCC 22019; assay: Broth microdilution MIC/MFC; assay type: cell-based; conditions: Lodderomyces parapsilosis; for MIC: ATCC22019, read-out: MIC
Source text: as §1, §2, §3, §4, §5, §6, §7, §8, §9, §10, §11

Gram-positive bacteria = assay: Broth microdilution, summary over reference Gram-positive bacteria; assay type: cell-based
Source text: as §1, §2, §3, §4, §5, §6, §7, §8, §9, §10, §11

[6] = test system: Staphylococcus aureus ATCC 25923; assay: Broth microdilution MIC/MBC; conditions: Staphylococcus aureus, ATCC25923
[7] = test system: Staphylococcus aureus ATCC 29213; assay: Broth microdilution MIC/MBC; conditions: ATCC29213
[8] = test system: Staphylococcus aureus ATCC 43300; assay: Broth microdilution MIC/MBC; conditions: ATCC43300 / MRSA
[9] = test system: Staphylococcus epidermidis ATCC 12228; assay: Broth microdilution MIC/MBC; conditions: ATCC12228
[10] = test system: Micrococcus luteus ATCC 10240; assay: Broth microdilution MIC/MBC; conditions: Micrococcus luteus, ATCC10240
[11] = test system: Bacillus subtilis ATCC 6633; assay: Broth microdilution MIC/MBC; conditions: ATCC6633
[12] = test system: Bacillus cereus ATCC 10876; assay: Broth microdilution MIC/MBC; conditions: Bacillus cereus, ATCC10876
[13] = test system: Bordetella bronchiseptica ATCC 4617; assay: Broth microdilution MIC/MBC; conditions: ATCC4617
[14] = test system: Klebsiella pneumoniae ATCC 13883; assay: Broth microdilution MIC/MBC; conditions: ATCC13883
[15] = test system: Proteus mirabilis ATCC 12453; assay: Broth microdilution MIC/MBC; conditions: ATCC12453
[16] = test system: Escherichia coli ATCC 25922; assay: Broth microdilution MIC/MBC; conditions: ATCC25922
[17] = test system: Salmonella typhimurium ATCC 14028; assay: Broth microdilution MIC/MBC; conditions: Salmonella enterica
[18] = test system: Pseudomonas aeruginosa ATCC 9027; assay: Broth microdilution MIC/MBC; conditions: ATCC9027

Structure (SMILES)	MIC [1] [µg/mL]	MIC [2] [µg/mL]	MIC [3] [µg/mL]	MIC [4] [µg/mL]	MIC [5] [µg/mL]	melting point [°C]	MIC [6] [µg/mL]	MIC [7] [µg/mL]	MIC [8] [µg/mL]	MBC [9] [µg/mL]	MIC [9] [µg/mL]	MBC [10] [µg/mL]	MIC [10] [µg/mL]	MBC [11] [µg/mL]	MIC [11] [µg/mL]	MIC [12] [µg/mL]	MIC [13] [µg/mL]	MIC [14] [µg/mL]	MIC [15] [µg/mL]	MIC [16] [µg/mL]	other results
O=C(N/N=C/c1ccccc1O)c1ccc(I)cc1 [Compound 23, N-[(2-hydroxyphenyl)methylidene]-4-iodobenzohydrazide]	> 1000	> 1000	> 1000	> 1000	1000 (≈ 2730 µM)	195 to 205	1000 (≈ 2730 µM)	500 (≈ 1370 µM)	500 (≈ 1370 µM)	> 1000	1000 (≈ 2730 µM)	> 1000	500 (≈ 1370 µM)	> 1000	1000 (≈ 2730 µM)	1000 (≈ 2730 µM)	> 1000	> 1000	> 1000	> 1000	MFC ([5]; ATCC22019, read-out: MFC): > 1000 µg/mL; MBC (Gram-positive bacteria; range over the reference Gram-positive bacteria, read-out: MBC): > 1000 µg/mL; MIC (Gram-positive bacteria; range over the reference Gram-positive bacteria, read-out: MIC): 500 to 1000 µg/mL (≈ 1370 to 2730 µM); antibacterial activity in words (Gram-positive bacteria; reference Gram-positive bacteria / studied bacteria): moderate or mild; MBC [6]: > 1000 µg/mL; MBC [7]: > 1000 µg/mL; MBC [8]: > 1000 µg/mL; MBC [12]: > 1000 µg/mL; MIC [17]: > 1000 µg/mL; MIC [18]: > 1000 µg/mL
CCOc1cccc(/C=N/NC(=O)c2cccc(I)c2)c1O [Compound 18, N-[(3-ethoxy-2-hydroxyphenyl)methylidene]-3-iodobenzohydrazide]	> 1000	> 1000	> 1000	> 1000	> 1000	115 to 121	> 1000	> 1000	> 1000	> 1000	500 (≈ 1220 µM)	250 (≈ 609 µM)	31.2 (≈ 76.2 µM)	> 1000	62.5 (≈ 152 µM)	> 1000	> 1000	> 1000	> 1000	> 1000	MIC (Gram-positive bacteria): 31.2 to 1000 µg/mL (≈ 76.2 to 2440 µM); MIC [17]: > 1000 µg/mL; MIC [18]: > 1000 µg/mL
NNC(=O)c1cccc(I)c1 [Compound 5, 3-iodobenzohydrazide]	> 1000	> 1000	> 1000	> 1000	> 1000	134 to 140	> 1000	> 1000	> 1000	> 1000	1000 (≈ 3820 µM)	> 1000	1000 (≈ 3820 µM)	> 1000	1000 (≈ 3820 µM)	> 1000	> 1000	> 1000	> 1000	> 1000	MIC (Gram-positive bacteria): 31.2 to 1000 µg/mL (≈ 119 to 3820 µM); MIC [17]: > 1000 µg/mL; MIC [18]: > 1000 µg/mL
